This is an account of results in patent US20240391964A1, “COMPOSITIONS AND METHODS FOR THE TREATMENT OF CANCER” (The University of Western Australia, priority 2020, published 2024).

The subject of assay [1] is SUM159 cells. Briefly: Cleaved caspase-3 immunoblot. The class given is cell-based, human. The conditions noted are these: 24 hours.
The subject of assay [2] is T11 cells. Kind of assay: Cell viability assay of melittin variants, T11. The class given is cell-based, murine. The conditions noted are these: t-test p=0.652. The protocol:
FIG. 5 presents the lack of anticancer activity of DEDE-melittin, and the breast cancer cell selectivity of the melittin fusion peptide RGD1-melittin. FIG. 5A presents cell viability assays of TNBC (SUM159) and HER2-enriched (SKBR3) cells treated with DEDE-melittin for 24 hours. FIG. 5B presents cell viability assays of T11 cells treated with melittin, RGD1-melittin, SV40-melittin, TAT-melittin and DEDE-melittin. FIG. 5C presents cell viability assays of human dermal fibroblasts (HDFa) and SUM159 treated with melittin (top) and RGD1-melittin (bottom) for 24 hours.
To assess the functional role of the positive (K21RKR24) sequence (SEQ ID NO: 4) in the C-terminus of melittin, a negatively charged melittin peptide (D21EDE24-melittin; SEQ ID NO: 6) was designed. These negative residues were predicted to disrupt the binding of melittin with the plasma membrane. […] However, the potency of melittin and SV40-melittin were greater than TAT-melittin, which could be due to the larger size of TAT.

For assay [3], the system named is SUM159 cells. Kind of assay: Immunofluorescence subcellular localization with anti-melittin antibody. The class given is cell-based, human. As to conditions: 30 minutes, IC50 concentrations.
Assay [4] has as its system T11 cells. Kind of assay: Cell viability, combination with docetaxel. The class given is cell-based, murine. As to conditions: T11, 48 hours. The protocol: FIG. 15 presents the results of cell viability assays of T11 breast cancer cells treated with melittin or RGD1-melittin alone and in combination with docetaxel for 48 hours. Representative plots of the combination treatments are presented as mean±SEM.
The murine p53 TNBC cell line T11 was treated with docetaxel in combination with either melittin or RGD1-melittin, and cell viability assays were conducted to determine the combination effect between the treatments (FIG. 15).

For assay [5], the system named is T11 cells. Briefly: Cell viability, combination with omomyc. The class given is cell-based, murine. As to conditions: T11, 24 hours. Here is the method: FIG. 16 presents the results of cell viability assays of T11 breast cancer cells treated with melittin or RGD1-melittin alone and in combination with omomyc for 24 hours. Representative plots of the combination treatments are presented as mean±SEM.
The murine p53 TNBC cell line T11 was treated with omomyc in combination with either melittin or RGD1-melittin, and cell viability assays were conducted to determine the combination effect between the treatments (FIG. 16).

In assay [6] the test system is COV362 cells. The class given is cell-based. Here is the method:
(§1) The OVCAR3 and COV362 ovarian cancer cell lines were treated with active RGD1-melittin and mutant RGD1-melittin (DEDE-RGD1-melittin). The COV362 cells were cultured in DMEM low glucose medium supplemented with 10% FBS. The OVCAR3 cells were grown in RPMI medium supplemented with 20% FBS. Cells were seeded overnight at a density of 5000 cells/p96-well plate and treated with active RGD1-melittin and mutant RGD1-melittin (RGD1-DEDE melittin), for 24 h at concentrations up to 20 µM. After treatments, cell viability was assessed using the CellTiter-Glo® assay according to the manufacturer's protocol (Promega; NSW, Australia). Luminescence signals were measured using the EnVision Multilabel Plate Reader (PerkinsElmer Inc.; Waltham, MA, USA). IC50s were calculated and transformed 95% confidence intervals provided by GraphPad Prism 6 software analysis (GraphPad Software Inc., San Diego, CA, USA).

Assay [7] concerns OVCAR3 cells. The class given is cell-based. Here is the method: as §1
Assay [8] concerns Ki-67 and PD-L1 in T11, SUM159 and SKBR3 cells. Kind of assay: Immunofluorescence of Ki-67 and PD-L1. As to conditions: 24 h at IC50 concentrations, all three cell lines. The class given is cell-based. The protocol:
The expression of PD-L1 of TNBC cells (T11 and SUM159) and HER2-enriched breast cancer cells (SKBR3) treated with active RGD1-melittin and mutant RGD1-melittin (DEDE RGD1-melittin) was measured using immunofluorescence.
Cells were seeded overnight on coverslips at a density of 3×105 in a p24-well plate coated with poly-L-lysine (Sigma-Aldrich) for 20 min and then washed twice with purified water. […] The cells were washed three times with PBS and then incubated with a goat α-mouse secondary Alexa Fluor 488-conjugated antibody (Thermo Fisher Scientific #A11001, 1:500) and Hoechst-33258 (1:5000) in PBS for 1 h at room temperature. After three more washes of PBS, the coverslip containing cells were mounted onto glass […] with SlowFade Diamond Antifade Mountant (Thermo Fisher Scientific). Slides were imaged using the confocal fluorescence Nikon Ti inverted microscope. Images were taken at 40× magnification and processed using ImageJ.

The subject of assay [9] is PD-L1 in T11, SUM159 and SKBR3 cells. Briefly: qRT-PCR of PD-L1 expression. The class given is cell-based. As to conditions: 24 h at IC50; p<0.005 T11, p<0.05 SUM159, p<0.005 SKBR3. The protocol: The level of PD-L1 expression was also measured in T11, SUM159 and SKBR3 treated with active RGD1-melittin and mutant RGD1-melittin peptides, or vehicle treated only, using qRT-PCR.
Cells were seeded overnight at a density of 3×105 in a p6-well plate. […] Cells were washed once with PBS before RNA was extracted from the cells using QIAzol Lysis. Reagent (QIAGEN) according to manufacturer's instructions. 500 ng of purified total RNA was used as the template for cDNA synthesis using the High Capacity cDNA Reverse Transcription Kit (Applied Biosystems). Relative quantification of PD-L1 transcript expression was obtained by quantitative real-time PCR (qRT-PCR) using fluorescent TaqMan probes (Applied Biosystems) and run on the ViiA 7TM Real-Time PCR machine (Applied Biosystems). Data were analysed by QuantStudio Real-Time PCR Software (Applied Biosystems) and results were expressed as fold change compared to untreated cells, respectively, after normalization against the GAPDH mRNA levels.
On the technique in general: Quantitative PCR measures a nucleic acid by following its amplification.

In assay [10] the test system is T11, OVCAR3, SUM159 and SKBR3 cells. Kind of assay: Cell viability, RGD1-melittin with docetaxel. The conditions noted are these: 24 h, non-constant ratio. The class given is cell-based. Here is the method: Cell viability assays of T11, OVCAR3, SUM159 and SKBR3 cells treated with RGD1-melittin alone and in combination with docetaxel were performed. Cells were seeded overnight at a density of 5000 cells/p96-well plate and treated with active RGD1-melittin alone or combined with docetaxel and administered at concentrations indicated in a non-constant ratio in the respective cell lines for 24 h. Cell viability was assessed using the CellTiter-Glo® assay.
(§2) The combination effect for different fractions of cells impacted in each combination were calculated using the Chou and Talalay algorithm included in the freely available CompuSyn software. Combination index (CI)<1 means synergism, CI=1 means additive and CI>1 means antagonism.

Assay [11] has as its system T11, OVCAR3 and COV362 cells. Kind of assay: Cell viability, RGD1-melittin with cisplatin. The conditions noted are these: 24 h, non-constant ratio. The class given is cell-based. Here is the method:
Cell viability assays of T11, OVCAR3, and COV362 cells treated with RGD1-melittin alone and in combination with cisplatin were performed. Cells were seeded overnight at a density of 5000 cells/p96-well plate and treated with active RGD1-melittin alone or combined with […] and administered at concentrations indicated in a non-constant ratio in the respective cell lines for 24 h. Cell viability was assessed using the CellTiter-Glo® assay.
as §2

Assay [12] has as its system SUM159 cells. The conditions noted are these: 24 hours, mean±SEM.
Method: To assess anticancer efficacy and selectivity, both venom from European honeybees collected in Perth, Australia and melittin peptide were evaluated in dose-response assays in a panel of cell lines representative of the intrinsic breast cancer subtypes and in non-transformed cells.

Consider `CC[C@H](C)[C@H](NC(=O)CNC(=O)[C@H](CCCCN)NC(=O)[C@H](CCCCN)NC(=O)[C@H](CC(C)C)NC(=O)[C@H](CCCNC(=N)N)NC(=O)CNC(=O)[C@H](CC(C)C)NC(=O)[C@H](CC(=O)O)NC(=O)CNC(=O)[C@H](CCCNC(=N)N)NC(=O)CNC(=O)[C@@H](N)Cc1c[nH]cn1)C(=O)NCC(=O)N[C@@H](C)C(=O)N[C@H](C(=O)N[C@@H](CC(C)C)C(=O)N[C@@H](CCCCN)C(=O)N[C@H](C(=O)N[C@@H](CC(C)C)C(=O)N[C@H](C(=O)N[C@H](C(=O)NCC(=O)N[C@@H](CC(C)C)C(=O)N1CCC[C@H]1C(=O)N[C@@H](C)C(=O)N[C@@H](CC(C)C)C(=O)N[C@H](C(=O)N[C@@H](CO)C(=O)N[C@@H](Cc1c[nH]c2ccccc12)C(=O)N[C@H](C(=O)N[C@@H](CCCCN)C(=O)N[C@@H](CCCNC(=N)N)C(=O)N[C@@H](CCCCN)C(=O)N[C@@H](CCCNC(=N)N)C(=O)N[C@@H](CCC(N)=O)C(=O)N[C@@H](CCC(N)=O)C(=O)O)[C@@H](C)CC)[C@@H](C)CC)[C@@H](C)O)[C@@H](C)O)C(C)C)C(C)C` [RGD1-melittin], for which, in [1], the “induction of apoptosis (cleaved caspase-3)” value is listed as “confirmed the anticancer activity”. In addition, the “IC50 compared to parental melittin” value in assay [2] is “not significantly different compared to parental melittin”. Also, the “subcellular localization / anti-melittin staining” value in assay [3] is listed as “distinctively targeted to the plasma membrane alone”. Further, the “combination effect with docetaxel on cell viability” value in [4] is “beneficial effect when combined with docetaxel”. The “combination effect with omomyc on cell viability” value in assay [5] is “beneficial effect when combined with omomyc”. The “fold lower IC50 than active melittin” value in assay [6] (COV362) was “approximately 3.7 fold”; in [7] (OVCAR3), “approximately 6 fold”. Besides, the IC50 in [6] (COV362, 24 h) was determined as 2100 nM; in assay [7] (OVCAR3, 24 h), 3.36 µM. In addition, in [8], the “PD-L1 expression (immunofluorescence)” value is reported as “reduced”. For the same molecule, the “cell proliferation (Ki-67)” value in [8] is given as “reduced”. Moreover, the “level of PD-L1 (qRT-PCR)” value in [9] is recorded as “significantly reduce”. In assay [10], the “sensitization to docetaxel (cell viability, combination index)” value was “significantly sensitized all four tested cell lines to docetaxel”. Further, the “sensitization to cisplatin (cell viability, combination index)” value in assay [11] is “significantly sensitized all three tested cell lines to cisplatin”. For the same molecule, the “ratio of the IC50s of HDFa/SUM159” value in assay [12] is 2.73±0.14.

Broadly, the IC50 is the concentration needed to halve the response being measured. Low values mean inhibition by little substance, high ones a need for much substance.
